Legend:
Candida albicans KE-2 [1] = assay: Therapeutic effect against experimental candidiasis in mice; type: in vivo, Jcl-ICR female mice; conditions: mouse survival ratio on the 5th day after infection, 50 mg/kg orally three times (0, 4 and 24 hours after infection), i.v. infection with 2 x 10^6 cells, eight mice per group; for responders at 50 mg/kg: Candida albicans, KE2, po, 120 h; for Therapeutic Effect (%): 50 mg/kg
Description: Therapeutic effect against experimental candidiasis in mice After Candida albicans KE-2 is incubated on Sabouraud's glucose agar at 28 °C for 48 hr., it is suspended in Sabouraud's glucose broth and the cells (2 ^x 10^6) are injected to a tail vein of Jcl-ICR female mice (4 weeks age; weight : 18 - 20 g). A suspension of the test compound in 2 % gum arabic is orally administered three times, immediately after infection of the yeast ( 0 hour), after 4 hours and after 24 hours, as a dosage of 50 mg/kg. Non-treated group is used as control. Eight mice per group are used in the control group and the treated group. All the mice in the control group died within 48 hours after infection. Therapeutic effect of the test compound is judged by mouse survival ratio on the 5th day after infection.

Candida albicans KE-2 [2] = assay: Inhibition test against pseudomycelium formation of Candida albicans; type: cell-based; conditions: minimum effective concentration preventing typical pseudomycelium formation, Eagle-MEM medium with 20 % calf serum, 1 x 10^6 yeast cells/ml, 18 hours at 37 °C, two fold dilution series; for minimal effective concentration: Candida albicans, KE2, read-out: Inhibition for Pseudomyselium Formation of Candida albicans (MEC, μg/ml)
Description: Inhibition test against psendomycelium formation of Candida albicans Candida albicans KE-2 was inoculated to Eagle-MEM medium (Nissan 2 made by Nissui Seiyaku, Ltd.) supplemented with 20 % calf serum so that its final inoculum of yeast cell might be 1 x 10^6 yeast cells per milliliter. The test compounds are added thereon in two fold dilution series. After incubation for 18 hours at 37 °C, the fungal growth in each drug concentration is smeared and fixed on a slide glass, and its morphological feature on the presence or absence of the psendomycelium formation is examined by a microscope following Giemsa staining. Minimum effective concentration (MEC, µg/ml) is defined as the lowest concentration of the compound which prevented typical pseudo- mycelium formation.

SMILES	responders at 50 mg/kg (Candida albicans KE-2 [1]) [%]	Inhibition for Pseudomyselium Formation of Candida albicans (MEC, μg/ml) (Candida albicans KE-2 [2]) [µg/mL]	minimal effective concentration (Candida albicans KE-2 [2]) [µg/mL]	Therapeutic Effect (%) (Candida albicans KE-2 [1])
COC(n1cncn1)C(O)(Cn1cncn1)c1ccc(F)cc1F (single isomer, unassigned) [Compound 21, 2-(2,4-Difluorophenyl)-1-methoxy-1,3-bis(1H-1,2,4-tri-azol-1-yl)-2-propanol]	87.5	0.63		
COC(n1ccnc1)C(O)(Cn1cncn1)c1ccc(Cl)cc1 (single isomer, unassigned) [Compound 23]			0.63	
COC(n1cncn1)C(O)(Cn1cncn1)c1ccc(F)cc1 (single isomer, unassigned) [Compound 24]	87.5		1.25	
COC(n1cncn1)C(O)(Cn1cncn1)c1ccc(Cl)cc1Cl (single isomer, unassigned) [Compound 25]	100		0.31	
COC(n1cncn1)C(O)(Cn1cncn1)c1ccc(Cl)cc1 (single isomer, unassigned) [Compound 26]	100			
COC(n1cccn1)C(O)(Cn1cncn1)c1ccc(F)cc1 (single isomer, unassigned) [Compound 27]	25			
COC(n1cccn1)C(O)(Cn1ccnc1)c1ccc(F)cc1 (single isomer, unassigned) [Compound 28]		0.08		62.5
COC(n1cccn1)C(O)(Cn1ccnc1)c1ccc(F)cc1F (single isomer, unassigned) [Compound 29]			0.31	100.0
COC(n1cccn1)C(O)(Cn1ccnc1)c1ccc(F)cc1F (single isomer, unassigned) [Compound 30]		0.31		50.0
COC(n1cccn1)C(O)(Cn1ccnc1)c1ccc(F)cc1 (single isomer, unassigned) [Compound 31]		1.25		37.5
OC(Cn1cncn1)(c1ccc(F)cc1)C(OCC(F)(F)F)n1cncn1 (single isomer, unassigned) [Compound 32]	50			
CCOC(n1cncn1)C(O)(Cn1cncn1)c1ccc(F)cc1 (single isomer, unassigned) [Compound 33]			1.25	
COC(n1cccn1)C(O)(Cn1cncn1)c1ccc(Cl)cc1 (single isomer, unassigned) [Compound 34]			0.63	
COC(n1cccn1)C(O)(Cn1ccnc1)c1ccc(Cl)cc1 (single isomer, unassigned) [Compound 35]	25		0.04	
COC(n1cccn1)C(O)(Cn1ccnc1)c1ccc(Cl)cc1 (single isomer, unassigned) [Compound 36]		0.08		37.5
COC(n1cccn1)C(O)(Cn1cncn1)c1ccc(Cl)cc1 (single isomer, unassigned) [Compound 37]	62.5	0.63		
COC(n1cccn1)C(O)(Cn1cccn1)c1ccc(Cl)cc1 (single isomer, unassigned) [Compound 38]	25		0.31	
COC(n1cncn1)C(O)(Cn1ccnc1)c1ccc(F)cc1F (single isomer, unassigned) [Compound 40]	37.5			
COC(n1cncn1)C(O)(Cn1ccnc1)c1ccc(Cl)cc1Cl (single isomer, unassigned) [Compound 44]	12.5			
COC(n1ccnc1C)C(O)(Cn1cncn1)c1ccc(Cl)cc1 (single isomer, unassigned) [Compound 45]	37.5			
COC(n1cnc(C)c1)C(O)(Cn1cncn1)c1ccc(Cl)cc1 (single isomer, unassigned) [Compound 46]	12.5		0.08	
COC(n1cncn1)C(O)(Cn1cncn1)c1ccc(F)cc1F (single isomer, unassigned) [Compound 47, 2-(2,4-Difluorophenyl)-1-methoxy-1,3-bis(1H-1,2,4-tri-azol-1-yl)-2-propanol]		0.31		
COC(n1cccn1)C(O)(Cn1cncn1)c1ccc(F)cc1F (single isomer, unassigned) [Compound 49]	75		0.31	
COC(n1cncn1)C(O)(Cn1cncn1)c1ccccc1F (single isomer, unassigned) [Compound 51]			0.63	
CCOC(n1cncn1)C(O)(Cn1cncn1)c1ccc(Cl)cc1Cl (centres unmarked) [Compound 54]	87.5			
